# Results published in ChEMBL document CHEMBL1914417 (Bioorg Med Chem Lett, 2011).
# Tests used:
# [1] = molecular target: D(2) dopamine receptor (Homo sapiens, UniProt P14416); assay: Antagonist activity at dopamine D2 receptor; format: functional
# [2] = molecular target: T1, Muscarinic acetylcholine receptor M1 (Rattus norvegicus, UniProt P08482); assay: Agonist activity at rat muscarinic M1 receptor expressed in CHO cells; format: functional, cell-based
# T1 sequence (P08482 whole entry): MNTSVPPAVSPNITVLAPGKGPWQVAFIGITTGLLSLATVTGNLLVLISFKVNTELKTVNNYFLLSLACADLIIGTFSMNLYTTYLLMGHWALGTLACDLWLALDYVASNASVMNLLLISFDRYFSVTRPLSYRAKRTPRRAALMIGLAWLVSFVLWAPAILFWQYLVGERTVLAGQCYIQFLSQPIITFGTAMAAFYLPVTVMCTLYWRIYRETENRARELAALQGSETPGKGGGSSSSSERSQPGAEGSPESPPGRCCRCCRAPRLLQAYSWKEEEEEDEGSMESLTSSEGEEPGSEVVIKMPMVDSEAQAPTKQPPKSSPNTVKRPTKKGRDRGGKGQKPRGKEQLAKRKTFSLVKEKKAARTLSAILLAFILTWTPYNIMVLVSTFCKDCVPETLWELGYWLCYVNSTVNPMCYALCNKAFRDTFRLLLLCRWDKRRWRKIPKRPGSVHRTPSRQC
# [3] = molecular target: T2, Muscarinic acetylcholine receptor M1 (Rattus norvegicus) (UniProt P08482); assay: Agonist activity at rat muscarinic M1 receptor expressed in CHO cells relative to acetylcholine; format: functional, cell-based
# T2 sequence (whole entry): T1 sequence (P08482 whole entry)
# [4] = molecular target: T3, Muscarinic acetylcholine receptor M2 (Rattus norvegicus, UniProt P10980); assay: Agonist activity at rat muscarinic M2 receptor expressed in CHO cells; format: functional, cell-based
# T3 sequence (P10980 whole entry): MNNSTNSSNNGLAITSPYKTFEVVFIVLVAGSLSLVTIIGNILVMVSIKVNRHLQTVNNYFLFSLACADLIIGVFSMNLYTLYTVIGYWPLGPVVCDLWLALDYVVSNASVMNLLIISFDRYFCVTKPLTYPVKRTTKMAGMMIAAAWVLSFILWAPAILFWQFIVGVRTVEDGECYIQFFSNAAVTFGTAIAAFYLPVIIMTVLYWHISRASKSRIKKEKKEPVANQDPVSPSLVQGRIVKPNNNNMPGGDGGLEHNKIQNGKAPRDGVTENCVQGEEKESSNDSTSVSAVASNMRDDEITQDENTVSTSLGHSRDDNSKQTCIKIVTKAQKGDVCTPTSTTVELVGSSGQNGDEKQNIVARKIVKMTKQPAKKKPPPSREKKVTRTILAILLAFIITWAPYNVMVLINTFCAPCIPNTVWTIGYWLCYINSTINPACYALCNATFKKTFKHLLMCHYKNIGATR
# [5] = molecular target: T4, Muscarinic acetylcholine receptor M3 (Rattus norvegicus, UniProt P08483); assay: Agonist activity at rat muscarinic M3 receptor expressed in CHO cells; format: functional, cell-based
# [6] = molecular target: T5, Muscarinic acetylcholine receptor M5 (Rattus norvegicus, UniProt P08911); assay: Agonist activity at rat muscarinic M5 receptor expressed in CHO cells; format: functional, cell-based
# T5 sequence (P08911 whole entry): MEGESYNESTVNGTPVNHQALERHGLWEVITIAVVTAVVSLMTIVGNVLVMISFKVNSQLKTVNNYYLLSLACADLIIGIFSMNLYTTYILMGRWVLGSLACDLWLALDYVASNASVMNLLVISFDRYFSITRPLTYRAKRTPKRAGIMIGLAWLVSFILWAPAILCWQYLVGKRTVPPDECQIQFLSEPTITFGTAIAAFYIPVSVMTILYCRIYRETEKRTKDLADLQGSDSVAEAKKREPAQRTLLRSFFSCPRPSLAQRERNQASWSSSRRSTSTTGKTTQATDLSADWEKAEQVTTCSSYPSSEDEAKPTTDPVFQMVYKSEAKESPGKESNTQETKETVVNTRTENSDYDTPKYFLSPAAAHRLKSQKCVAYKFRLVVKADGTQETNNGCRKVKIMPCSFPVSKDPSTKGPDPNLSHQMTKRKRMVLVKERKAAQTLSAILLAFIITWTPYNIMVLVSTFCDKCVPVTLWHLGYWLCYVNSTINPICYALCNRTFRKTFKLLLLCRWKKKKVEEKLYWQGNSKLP
# [7] = molecular target: T1, Muscarinic acetylcholine receptor M1; assay: Agonist activity at rat recombinant muscarinic M1 receptor by HTS cell based assay; format: functional
# [8] = molecular target: T4, Muscarinic acetylcholine receptor M3; assay: Agonist activity at rat recombinant muscarinic M3 receptor by HTS cell based assay; format: functional
# [9] = molecular target: T6, Muscarinic acetylcholine receptor M4 (Rattus norvegicus, UniProt P08485); assay: Agonist activity at rat recombinant muscarinic M4 receptor by HTS cell based assay; format: functional
# T6 sequence (P08485 whole entry): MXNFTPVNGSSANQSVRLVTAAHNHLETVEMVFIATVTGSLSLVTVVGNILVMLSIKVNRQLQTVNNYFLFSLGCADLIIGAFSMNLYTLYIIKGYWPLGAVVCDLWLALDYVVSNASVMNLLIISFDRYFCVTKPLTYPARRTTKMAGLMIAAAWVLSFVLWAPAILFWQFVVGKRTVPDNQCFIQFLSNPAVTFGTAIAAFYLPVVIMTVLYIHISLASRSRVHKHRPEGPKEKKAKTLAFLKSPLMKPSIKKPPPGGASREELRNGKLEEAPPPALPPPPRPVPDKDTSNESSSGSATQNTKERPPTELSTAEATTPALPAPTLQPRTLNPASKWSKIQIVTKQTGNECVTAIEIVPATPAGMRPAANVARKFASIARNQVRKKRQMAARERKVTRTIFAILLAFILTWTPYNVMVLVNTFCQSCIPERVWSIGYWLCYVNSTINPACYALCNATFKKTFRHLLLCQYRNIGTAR
# [10] = molecular target: Muscarinic acetylcholine receptor M3 (Homo sapiens, UniProt P20309); assay: Agonist activity at human recombinant muscarinic M3 receptor by HTS cell based assay; format: functional
# [11] = molecular target: T7, Muscarinic acetylcholine receptor M5 (Homo sapiens, UniProt P08912); assay: Agonist activity at human recombinant muscarinic M5 receptor by HTS cell based assay; format: functional
# T7 sequence (P08912 whole entry): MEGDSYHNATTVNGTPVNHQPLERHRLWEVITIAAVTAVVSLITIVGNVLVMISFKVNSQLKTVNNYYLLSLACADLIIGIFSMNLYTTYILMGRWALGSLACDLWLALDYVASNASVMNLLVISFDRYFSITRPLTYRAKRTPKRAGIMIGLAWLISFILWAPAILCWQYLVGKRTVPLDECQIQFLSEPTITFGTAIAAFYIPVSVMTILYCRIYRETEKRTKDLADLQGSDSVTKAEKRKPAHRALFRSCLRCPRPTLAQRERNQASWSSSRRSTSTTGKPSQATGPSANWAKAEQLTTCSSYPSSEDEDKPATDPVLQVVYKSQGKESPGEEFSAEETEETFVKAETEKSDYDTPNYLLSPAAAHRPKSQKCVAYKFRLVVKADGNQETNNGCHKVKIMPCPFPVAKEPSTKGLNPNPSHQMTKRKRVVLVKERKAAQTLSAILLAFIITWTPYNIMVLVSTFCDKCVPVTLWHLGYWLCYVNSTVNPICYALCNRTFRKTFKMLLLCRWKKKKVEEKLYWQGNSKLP
# T4 sequence (P08483 whole entry): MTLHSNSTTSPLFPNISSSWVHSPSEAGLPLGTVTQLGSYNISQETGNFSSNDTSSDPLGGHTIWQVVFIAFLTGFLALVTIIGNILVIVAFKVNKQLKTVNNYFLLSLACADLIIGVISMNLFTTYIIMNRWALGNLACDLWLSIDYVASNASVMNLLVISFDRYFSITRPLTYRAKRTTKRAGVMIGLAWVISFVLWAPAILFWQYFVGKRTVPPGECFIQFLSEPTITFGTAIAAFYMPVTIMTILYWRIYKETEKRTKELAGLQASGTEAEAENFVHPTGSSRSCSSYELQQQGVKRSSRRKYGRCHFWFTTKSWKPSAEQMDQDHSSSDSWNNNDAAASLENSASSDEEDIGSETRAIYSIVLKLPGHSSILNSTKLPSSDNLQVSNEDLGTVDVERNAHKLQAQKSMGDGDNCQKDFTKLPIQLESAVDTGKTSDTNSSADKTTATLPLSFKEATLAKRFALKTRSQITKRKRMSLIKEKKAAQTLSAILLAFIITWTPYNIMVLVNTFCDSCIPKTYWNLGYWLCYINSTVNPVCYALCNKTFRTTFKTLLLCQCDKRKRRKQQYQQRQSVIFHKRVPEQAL
# Chain of D(2) dopamine receptor (P14416 whole entry): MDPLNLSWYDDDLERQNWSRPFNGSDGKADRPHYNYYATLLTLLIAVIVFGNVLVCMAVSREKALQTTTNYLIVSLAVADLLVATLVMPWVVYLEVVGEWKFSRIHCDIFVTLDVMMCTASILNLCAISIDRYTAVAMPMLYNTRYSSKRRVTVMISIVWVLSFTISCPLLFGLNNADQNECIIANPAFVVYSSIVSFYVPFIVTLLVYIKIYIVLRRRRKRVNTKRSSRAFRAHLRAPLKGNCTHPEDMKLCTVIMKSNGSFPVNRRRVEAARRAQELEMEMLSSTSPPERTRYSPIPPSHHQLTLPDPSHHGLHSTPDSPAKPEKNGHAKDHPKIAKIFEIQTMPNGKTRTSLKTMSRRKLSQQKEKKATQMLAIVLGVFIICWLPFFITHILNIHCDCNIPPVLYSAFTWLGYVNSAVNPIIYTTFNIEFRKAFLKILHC
# Chain of Muscarinic acetylcholine receptor M3 (Homo sapiens, UniProt P20309) (P20309 whole entry): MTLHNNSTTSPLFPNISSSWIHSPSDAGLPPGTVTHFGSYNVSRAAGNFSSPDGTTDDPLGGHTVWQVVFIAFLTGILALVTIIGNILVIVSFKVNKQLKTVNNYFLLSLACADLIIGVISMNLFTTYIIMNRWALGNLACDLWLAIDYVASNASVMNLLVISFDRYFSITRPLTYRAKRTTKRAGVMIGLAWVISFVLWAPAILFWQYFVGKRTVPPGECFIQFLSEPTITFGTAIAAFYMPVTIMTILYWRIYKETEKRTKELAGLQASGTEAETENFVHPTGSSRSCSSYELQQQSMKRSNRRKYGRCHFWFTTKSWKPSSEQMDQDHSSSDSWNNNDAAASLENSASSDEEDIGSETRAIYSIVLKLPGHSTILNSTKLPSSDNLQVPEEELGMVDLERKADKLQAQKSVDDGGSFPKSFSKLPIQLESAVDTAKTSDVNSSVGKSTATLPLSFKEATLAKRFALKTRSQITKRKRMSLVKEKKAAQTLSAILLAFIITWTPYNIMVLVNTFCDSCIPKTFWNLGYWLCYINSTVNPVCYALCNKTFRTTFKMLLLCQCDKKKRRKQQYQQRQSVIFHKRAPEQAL
SMILES,IC50 [1],EC50 [2],Emax [3],EC50 [4],EC50 [5],EC50 [6],EC50 [7],EC50 [8],EC50 [9],EC50 [10],EC50 [11],EC50 ([2]; cho)
CCOC(=O)N1CCC(N2CCC[C@@H](NC(=O)c3ccccc3C)C2)CC1,> 30 µM,0.11 µM,96%,> 30 µM,> 30 µM,> 30 µM,1.3 µM,> 30 µM,> 30 µM,> 30 µM,> 30 µM,–
CCOC(=O)N1CCC(NCCNC(=O)c2ccccc2C)CC1,4.5 µM,–,81%,> 30 µM,> 30 µM,> 30 µM,2.3 µM,> 30 µM,> 30 µM,> 30 µM,> 30 µM,0.2 µM
